From paper PMC11904993, “Humanized Candida and NanoBiT Assays Expedite Discovery of Bdf1 Bromodomain Inhibitors With Antifungal Potential” (Advanced Science, 2025) come the findings set out here.

Several values for one entry are separate records, joined by “and”; a condition that tells them apart may be missing. Equal entries are not always repeated. Where two headings read alike, the source gives them in different places.

The target of assay [1] is CgBdf1 BD1 (Candida glabrata, UniProt Q6FWV7). Description: HTRF assay, inhibition of H4ac4 peptide binding. As to conditions: for IC50 / pIC50 CgBD1: single experiments Exp1-3; for IC50: read-out: pIC50 CgBD1 (converted). Set-up: species or system C. glabrata. Background: Time-resolved FRET reads energy transfer from a long-lived donor to a nearby acceptor.
Sequence of CgBdf1 BD1 (Candida glabrata, UniProt Q6FWV7) (Q6FWV7 entry or part of it): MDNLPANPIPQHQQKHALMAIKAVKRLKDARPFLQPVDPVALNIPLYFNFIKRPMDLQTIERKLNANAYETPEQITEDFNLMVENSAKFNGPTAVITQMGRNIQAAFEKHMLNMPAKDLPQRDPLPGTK
Assay [2] concerns the target CgBdf1 BD2 (Candida glabrata, UniProt Q6FWV7). Description: biochemical. It is filed as binding, C. glabrata. Particulars: for IC50: read-out: pIC50 CgBD2 (converted).
Assay [3] has as its system C. glabrata strains expressing WT and mutant Bdf1. The assay can be described thus: Growth inhibition in liquid media, C. glabrata lab strains. As to conditions: for OD at 600 nm: Figure S4B; for EC50: Nakaseomyces glabratus; for pEC50 growth inhibition: Fig 2C.
Method: (§1) Growth on Liquid Media with C. glabrata Lab Strains: Cells were grown at 30 °C in SC+M+C‐U medium (SC medium with 5 mM methionine, 0.25 mM cysteine, without uracil) to an OD600 of 0.5–0.8. […] Plates were incubated at 30 °C and OD600 was measured using a Multiskan FC Microplate Photometer (Thermo Fisher).
In assay [4] the test system is CgBdf1 BD1. The assay can be described thus: Histone peptide array assay. Particulars: peptide array signal.
Method: (§2) The array was prepared as described in the manufacturer's instructions. […] The array was then washed three times with binding buffer. Anti‐GST antibody (GE Healthcare) was used for the detection of GST‐tagged bromodomains.
Assay [5] deals with CgBdf1 BD2. Description: Histone peptide array assay. Particulars: peptide array signal.
Method: as §2
Assay [6] relates to C. glabrata expressing humanized Bdf1 (Brd4 BDs). Description: Growth inhibition in liquid media, humanized C. glabrata strains. Particulars: Fig 3E, 50 µM, Exp 1-3.
Method: as §1
[7] abbreviates: Fig 2C original data, analogs of 24.
[8] abbreviates: read-out: pEC50 (WT BDF1), Fig 2D (converted), WT C. glabrata, single experiments Exp1-3.
Where [9] appears, read: read-out: pEC50 growth inhibition, Fig 2C (converted), strain BD1 Y-F, single experiments Exp1-3.
The mark [10] stands for this setting: Fig 2C original data, analogs of 24, single experiments Exp1-3.
Where [11] appears, read: strain BD2 Y-F, single experiments Exp1-3.
The mark [12] stands for this setting: read-out: pEC50 growth inhibition, Fig 2C (converted), strain BD2 Y-F, single experiments Exp1-3.

Sequence of CgBdf1 BD2 (Candida glabrata, UniProt Q6FWV7) (Q6FWV7 entry or part of it): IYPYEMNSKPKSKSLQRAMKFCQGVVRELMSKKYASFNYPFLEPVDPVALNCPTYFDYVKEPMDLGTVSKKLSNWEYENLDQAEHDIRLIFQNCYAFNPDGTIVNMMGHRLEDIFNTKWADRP

For `CCOC(=O)Nc1cc(-c2ccc(C)c(NS(C)(=O)=O)c2)nn2c(C)nnc12` [Bromosporine, reference compound], the remaining activity at 0.07813 µM in assay [1] (4 h, CgBD1, Conc 78.13 nM, replicate experiments, read-out: HTRF signal relative to no-compound control (Figure S4A raw data)) stood at 98%; in assay [2] (24 h, CgBD2, Conc 78.13 nM, replicate experiments, read-out: HTRF signal relative to no-compound control (Figure S4A raw data)), 106%. Moreover, the remaining activity at 0.3125 µM in assay [1] (4 h, CgBD1, Conc 312.5 nM, replicate experiments, read-out: HTRF signal relative to no-compound control (Figure S4A raw data)) turned out to be 97.9%. Besides, the remaining activity at […] in assay [1] (4 h, CgBD1, Conc 2500 nM, replicate experiments, read-out: HTRF signal relative to no-compound control (Figure S4A raw data)) was determined as 94.3%; in assay [2] (24 h, CgBD2, Conc 2500 nM, replicate experiments, read-out: HTRF signal relative to no-compound control (Figure S4A raw data)), 79.8%. The remaining activity at 5 µM was determined as 80.9% in assay [1] (4 h, CgBD1, Conc 5000 nM, replicate experiments, read-out: HTRF signal relative to no-compound control (Figure S4A raw data)) and 60.1% in assay [2] (24 h, CgBD2, Conc 5000 nM, replicate experiments, read-out: HTRF signal relative to no-compound control (Figure S4A raw data)). The remaining activity at 10 µM in assay [1] (4 h, CgBD1, Conc 10000 nM, replicate experiments, read-out: HTRF signal relative to no-compound control (Figure S4A raw data)) amounted to 75.9%; in assay [2] (24 h, CgBD2, Conc 10000 nM, replicate experiments, read-out: HTRF signal relative to no-compound control (Figure S4A raw data)), 30.8%. The remaining activity at 20 µM was 49.4% in assay [1] (4 h, CgBD1, Conc 20000 nM, replicate experiments, read-out: HTRF signal relative to no-compound control (Figure S4A raw data)) and 23.4% in assay [2] (24 h, CgBD2, Conc 20000 nM, replicate experiments, read-out: HTRF signal relative to no-compound control (Figure S4A raw data)). The IC50 in assay [1] (Fig 1D/2A original data) was 23.4 µM and 12.3 µM and 20 µM; in assay [2] (Fig 1D/2A original data, single experiments Exp1-3) it was 4.9 µM and 4.17 µM. Further, the remaining activity at 0.15625 µM in assay [2] (24 h, CgBD2, Conc 156.25 nM, replicate experiments, read-out: HTRF signal relative to no-compound control (Figure S4A raw data)) came to 113%. Further, the “OD at 600 nm” value is 0.446 and 0.443 and 0.490 in assay [3] (WT BDF1 strain, Exp 1-3); 0.422 and 0.447 and 0.470 in assay [3] (bdf1-bd1Δ strain, Exp 1-3); 0.242 and 0.229 and 0.260 in assay [3] (bdf1-bd2Δ strain, Exp 1-3).

`Cc1ccc(-c2nnc(C)c(NCc3ccco3)n2)cc1` [Compound 24a]: in assay [1] (setting [7]), the “pIC50 CgBD1” value was 5.099 and 5.219 and 5.157. Moreover, the “fold drop in CgBD1 inhibition” value in assay [1] (relative to 24, thiophenyl replaced by furyl or methylfuryl) is reported as 3 fold. The EC50 in assay [3] (setting [8]) was 206 µM; in assay [3] (setting [9]), above 251 µM.

Take `Cc1cccc(-c2nnc(C)c(NCc3ccco3)n2)c1` [Compound 24b]: the IC50 is 12.6 µM and 14.6 µM and 22.2 µM in assay [1] (setting [7]); 29.5 µM and 74.6 µM and > 100 µM in assay [2] (setting [10]). For the same molecule, in assay [3] (setting [11]), the pEC50 growth inhibition was 3.930 and 3.985. For the same molecule, the EC50 in assay [3] (setting [8]) is above 251 µM; in assay [3] (setting [9]), above 251 µM; in assay [3] (setting [12]), 74.8 µM.

`Cc1cccc(-c2nnc(C)c(NCc3ccc(C)o3)n2)c1` [Compound 24d]: the IC50 was 14.2 µM and 12.2 µM and 11.5 µM in assay [1] (setting [7]); 16.4 µM and 18.7 µM and 21.5 µM in assay [2] (setting [10]). Moreover, the pEC50 growth inhibition in assay [3] (strain BD1 Y-F, single experiments Exp1-3) is 3.797 and 3.888; in assay [3] (setting [11]) it was 4.459 and 4.324. Besides, the “pEC50 (WT BDF1)” value in assay [3] (Fig 2D, WT C. glabrata, single experiments Exp1-3) is 3.713 and 3.843. In addition, the values for the EC50 in assay [3] (setting [8]), in assay [3] (setting [9]) and in assay [3] (setting [12]) were 101 µM, 134 µM and 44.7 µM, respectively.

On to `COc1cccc(CNc2nc(-c3ccc(C)cc3)nnc2C)c1` [Compound 24f], for which the IC50 was 3.66 µM and 2.81 µM and 2.3 µM in assay [1] (setting [7]); above 100 µM in assay [2] (setting [10]). Also, in assay [3] (setting [11]), the pEC50 growth inhibition was found to be 4.188. Besides, the EC50 in assay [3] (setting [8]) is above 251 µM; in assay [3] (setting [9]), above 251 µM; in assay [3] (setting [12]), 68.2 µM.

As for `COc1ccc(-c2nnc(C)c(NCc3ccccc3)n2)cc1` [Compound 24g], the “pIC50 CgBD1” value in assay [1] (setting [7]) is 6.145 and 5.997. For the same molecule, the “pIC50 CgBD2” value in assay [2] (setting [10]) is 4.269 and <4. Besides, the pEC50 growth inhibition in assay [3] (setting [11]) is 4.261 and 4.310. Moreover, the EC50 in assay [3] (setting [8]) is above 251 µM; in assay [3] (setting [9]), above 251 µM; in assay [3] (setting [12]), 43.2 µM.

Turning to `COc1ccc(CNc2nc(-c3ccc(C)cc3)nnc2C)cc1OC` [Compound 24i], the IC50 in assay [1] (setting [7]) was 2.61 µM and 2.54 µM and 2.62 µM; in assay [2] (setting [10]), 44.1 µM and 45 µM and 41.5 µM. Also, the EC50 in assay [3] (setting [8]), in assay [3] (setting [9]) and in assay [3] (setting [12]) was above 251 µM throughout.

With `COc1ccc(CNc2nc(-c3cccc(C)c3)nnc2C)cc1OC` [Compound 24j], the IC50 in assay [1] (setting [7]) was 4.11 µM and 5.81 µM and 4.81 µM; in assay [2] (setting [10]) it was 57 µM and 58.2 µM and 82.4 µM. Also, the EC50 in assay [3] (setting [8]), in assay [3] (setting [9]) and in assay [3] (setting [12]) was above 251 µM throughout.

As to `COC(=O)c1ccc(CNc2nc(-c3ccc(C)cc3)nnc2C)cc1` [Compound 24k, Methyl 4‐(((6‐methyl‐3‐(p‐tolyl)‐1,2,4‐triazin‐5‐yl)amino)methyl)benzoate], the IC50 in assay [1] (setting [7]) and in assay [2] (setting [10]) was above 100 µM each time. For the same molecule, the EC50 in assay [3] (setting [8]), in assay [3] (setting [9]) and in assay [3] (setting [12]) was above 251 µM each time.

In the case of `COC(=O)c1cccc(CNc2nc(-c3ccc(C)cc3)nnc2C)c1` [Compound 24l, Methyl 3‐(((6‐methyl‐3‐(p‐tolyl)‐1,2,4‐triazin‐5‐yl)amino)methyl)benzoate], the IC50 in assay [1] (setting [7]) was 79.4 µM and 39.6 µM and 89.9 µM; in assay [2] (setting [10]), above 100 µM. For the same molecule, the EC50 in assay [3] (setting [8]), in assay [3] (setting [9]) and in assay [3] (setting [12]) was above 251 µM in each case.

As for `Cc1ccc(-c2nnc(C)c(NCc3ccccc3)n2)cc1` [Compound 24m, N‐benzyl‐6‐methyl‐3‐(p‐tolyl)‐1,2,4‐triazin‐5‐amine], the IC50 in assay [1] (setting [7]) and in assay [2] (setting [10]) was above 20 µM in each case. In addition, the EC50 in assay [3] (setting [8]), in assay [3] (setting [9]) and in assay [3] (setting [12]) was above 251 µM each time.

As for `CCOC(=N)c1ccc(C)cc1` [Compound 65], the “Raw data, WT” value was determined as 0.0009452 in assay [4] (CgBdf1 BD1 WT, first replicate column); 0.02836 in assay [4] (CgBdf1 BD1 WT, second replicate column); 0.004991 in assay [5] (CgBdf1 BD2 WT, first replicate column); 0.003431 in assay [5] (CgBdf1 BD2 WT, second replicate column). The “Normalized (0 to 100%), WT” value was determined as 1.47% in assay [4] (CgBdf1 BD1 WT, mean of the two raw values) and 0.421% in assay [5] (CgBdf1 BD2 WT, mean of the two raw values). Moreover, the “Raw data, YF mutant” value in assay [4] (CgBdf1 BD1 YF mutant, first replicate column) was found to be 0.001851; in assay [4] (CgBdf1 BD1 YF mutant, second replicate column), 0.003085; in assay [5] (CgBdf1 BD2 YF mutant, first replicate column) it was 0.007362; in assay [5] (CgBdf1 BD2 YF mutant, second replicate column), 0.0003067. For the same molecule, the “Normalized (0 to 100%), YF mutant” value in assay [4] (CgBdf1 BD1 YF mutant, mean of the two raw values) was 0.247%; in assay [5] (CgBdf1 BD2 YF mutant, mean of the two raw values), 0.383%.

For the molecule `CCNC(=O)C[C@@H]1N=C(c2ccc(Cl)cc2)c2cc(OC)ccc2-n2c(C)nnc21` [I-BET762], the “%Growth” value in assay [3] (Fig 3E, 50 µM, WT BDF1-flag, Exp 1-3) was 107% and 101%; in assay [6] (BDF1-hBD1-flag), 102% and 95% and 92%; in assay [6] (BDF1-hBD2-flag) it was 105% and 93% and 100%; in assay [6] (humanized BDF1-flag), 83%.

On to `CCNC(=O)C[C@@H]1N=C(c2ccc(Cl)cc2)c2cc(OC)ccc2-n2c(C)nnc21` [I-BET], for which the “OD at 600 nm” value in assay [3] (WT BDF1 strain, Exp 1-3) is 0.369 and 0.413 and 0.420; in assay [3] (bdf1-bd1Δ strain, Exp 1-3), 0.298 and 0.365 and 0.364; in assay [3] (bdf1-bd2Δ strain, Exp 1-3) it was 0.164 and 0.171 and 0.191.

For `COc1ccccc1S(=O)(=O)Nc1ccc2c(c1)CN(C)C(=O)N2` [PFI-1, reference compound], the “pIC50 CgBD1” value in assay [1] (Fig 1D/2A original data) is 4.63 and 4.61. Moreover, the “pIC50 CgBD2” value in assay [2] was “* 4”.

With `COc1ccccc1S(=O)(=O)Nc1ccc2c(c1)CN(C)C(=O)N2` [PFI], the “OD at 600 nm” value was 0.381 and 0.415 and 0.390 in assay [3] (WT BDF1 strain, Exp 1-3); 0.323 and 0.367 and 0.349 in assay [3] (bdf1-bd1Δ strain, Exp 1-3); 0.181 and 0.163 and 0.165 in assay [3] (bdf1-bd2Δ strain, Exp 1-3).

Consider I-BET151 [reference compound], for which the “pIC50 CgBD1” value in assay [1] (Fig 1D/2A original data, listed as IBET-151) is 5.54 and 5.64 and 5.77; in assay [1] (Fig 1D/2A original data, listed as i-BET151), 5.772 and 5.641. Also, the “pIC50 CgBD2” value was 6.30 and 6.21 and 6.31 in assay [2] (Fig 1D/2A original data, single experiments Exp1-3, listed as IBET-151); 6.297 and 6.205 in assay [2] (Fig 1D/2A original data, single experiments Exp1-3, listed as i-BET151).
